Experimental data: patent US9994554B2, “Barbiturate and thiobarbiturate compounds for use in cancer therapy” (NUHOPE, LLC, priority 2011, dated 2018)
“And” between values parts separate entries of the source, which are not always exact repeats. Equal entries are not always repeated. Where two headings read alike, the source gives them in different places. *1 amine or outer side, *2 acyl side, *3 side chain or, on linkers, in order; H or OH if unused. Where a SMILES comes first, the peptide text is derived from it. Bridges are numbered along the chain shown (N, C = ends). Roman numbers before positions name the chains, in order. [ ]: non-standard residue; d: D form. Actinocin(9to1) = Cc1c2oc3c(C)ccc(C(=O)[*:1])c3nc-2c(C(=O)[*:2])c(N)c1=O; NMeV = CN[C@H](C(=O)O)C(C)C; Sar = CNCC(=O)O

Tests used:
[1] = test system: CCF-STTG1; assay: CCF-STTG1 resazurin cell assay (Example 14); format: cell-based; details: Homo sapiens, read-out: Brain - Astrocytoma CCF-STTG1 pXC50 (converted)
Protocol: (§1) In this assay, cell lines were tested broadly using the same method as the U87 cell line assay of Example 13. NCI-H1299, CCF-STTG1 and Hep G2 cells were obtained from the ATCC. These cell lines were tested as previously described with the following modifications. NCI-H1299, CCF-STTG1 were maintained in RPMI-1640 Medium plus 10% fetal bovine serum and 1% penicillin/streptomycin, while Hep G2 cells were maintained in Eagle's Minimum Essential Medium plus 10% fetal bovine serum and 1% penicillin/streptomycin. Cells were plated at a density of 1×10^4 per ml except CFF-STTG1 cells which were seeded at a density of 2.5×10^4 per ml.

[2] = test system: U87-MG cells; assay: U87-MG resazurin cell assay (Example 13); format: cell-based; details: Homo sapiens, U-87 MG
Protocol: U87-MG cells were obtained from the ATCC, LGC Standards (#HTB-14). The cells were screened for mycoplasma (Mycoplasma Experience) and maintained in Biowhittaker Alpha MEM (Lonza #BE02-002F+10% dialyzed US FBS serum (Invitrogen #26400-044), 1% Penstrep (Gibco #15140-122).
Compounds to be tested were transferred into column 1 of a hit plate (96-well PPV Greiner #651201). 20 ul of DMSO was added to columns 2 to 11. The top concentration was 10 mM.
Serial dilution, ten-point one in three dilution curves were created using Perkin Elmer Janus (20 ul clear Robopack disposable tips #6000677 used).
2 ul of each of the compounds was transferred by pre-dispensing into black, clear bottom 96-well CellBIND Corning plates (Fisher #DPS-184-030R) using Platemate 2×2 (ThermoFisher Darts #5506).
200 μl of U87-MG cells were added to columns 1 to 11 at a density of 1000 cells per ml, and media only was dispensed into control column 12 using Wellmate (Small bore tubing set #201-30002).
After 5 days (120 hrs) incubation at 37° C. under 5% CO2 in a humidified incubator, the assay was “stopped” by addition of Resazurin sodium salt at 0.5 mM final concentration (Sigma R7017). The plates were incubated for a further 4 hrs before resorufin readout was taken from a Perkin Elmer EnVision, 550 nm excitation (photo550, Barcode 312), 580 nm emission (M580, Barcode 233), Top Mirror BODIPY (D555, Barcode 405).

[3] = test system: NCI-H1299; assay: NCI-H1299 resazurin cell assay (Example 14); format: cell-based; details: Homo sapiens, read-out: Lung - Non small cell lung carcinoma NCI-H1299 pXC50 (converted)
Protocol: as §1

[4] = test system: Hep G2; assay: Hep G2 resazurin cell assay (Example 14); format: cell-based; details: Homo sapiens, HepG2; read-out: Liver - Hepatocellular carcinoma Hep G2 pXC50 (converted)
Protocol: as §1

[5] = test system: CCF-STTG1 cells; assay: FITC-Annexin V/propidium iodide apoptosis assay; format: cell-based, human; details: CCF-STTG1, at 0.05 μg/ml (39.8 nM)
Protocol: An FITC-labeled Annexin V/propidium iodide apoptosis assay kit (Molecular Probes) was used to determine whether CC-I induces apoptosis in an astrocytoma cell line. […] The percentage of apoptotic cells by the CC-I treatment in CCF-STTG1 cells is from 10.9±0.16% at 5 pig/ml ([…]) to 48.7±0.33% at 10 μg/ml (36.2 μM). By comparison, the positive control, actinomycin D, induced apoptosis in 47.8±0.04% of the cells at 0.05 μg/ml (39.8 nM).

[6] = test system: MCF7; assay: Cytotoxicity, MCF7; format: cell-based; details: MCF7; human breast adenocarcinoma cell line
Protocol: (§5) Human neuroblastoma cell lines were cultured in Dulbecco's Modified Eagle Medium (DMEM)/F12 media. Human glioma cells were ordered from American Type Culture Collection (ATCC, Manassas, Va.), and maintained in DMEM with 4×10^−3M L-glutamine, 100 U/ml penicillin, 100 μg/ml streptomycin, and 10% fetal bovine serum (FBS). All experiments were performed at 37° C. in 5% CO2 atmosphere under cell culture conditions. Prior to γ-radiation or exposure to chemotherapeutic agents, the glioma cells were plated at a density of 156 to 8,000 cells per well in 96 well plates to account for differences in growth rates, and to obtain similar cell densities for the experimental manipulations, and cultured overnight. […] Cell cytotoxicity assay was determined by MTS [3-(4,5-dimethylthiazol-2-yl)-5-(3-carboxymethoxyphenyl)-2-(4-sulfophenyl)-2H-tetrazolium, inner salt] Cell Proliferation Assay (Promega, Madison, Wis.) or sulforhodamine B (SRB) assay at the end of the exposure period (47, 48).

[7] = test system: OVCAR-3; assay: Cytotoxicity, ovarian cancer cells; format: cell-based; details: OVCAR-3; human ovarian carcinoma cell line
Protocol: To assess the effect of CC-I on the ovarian cancer cells, the cells were cultured overnight at a density of 5,000 to 10,000 cells per well in 96 well plates. Then the cells were treated with different concentrations of CC-I (Formula IV) or Formula V for another 3-6 days before cytotoxicity assay using MTS or SRB assay. The IC50 or LD50, 50% inhibition or lethal dose, of compounds is also determined using statistical software (GraphPad) as a general indicator of toxicity.

[8] = test system: U87-MG; assay: cells; details: Homo sapiens, U-87 MG, read-out: IC50 (μM) U87-MG
Protocol: (§2) Human neuroblastoma cell lines were cultured in Dulbecco's Modified Eagle Medium (DMEM)/F12 media. Human glioma cells were ordered from American Type Culture Collection (ATCC, Manassas, Va.), and maintained in DMEM with 4×10^−3M L-glutamine, 100 U/ml penicillin, 100 μg/ml streptomycin, and 10% fetal bovine serum (FBS). All experiments were performed at 37° C. in 5% CO2 atmosphere under cell culture conditions. Prior to γ-radiation or exposure to chemotherapeutic agents, the glioma cells were plated at a density of 156 to 8,000 cells per well in 96 well plates to account for differences in growth rates, and to obtain similar cell densities for the experimental manipulations, and cultured overnight. Then cells received different dosages of γ-radiation from a ^60Co source GammaCell 220 (Nordion International Inc, Ontario, Canada) or chemotherapeutic agents for another 2-6 days. Cell cytotoxicity assay was determined by MTS [3-(4,5-dimethylthiazol-2-yl)-5-(3-carboxymethoxyphenyl)-2-(4-sulfophenyl)-2H-tetrazolium, inner salt] Cell Proliferation Assay (Promega, Madison, Wis.) or sulforhodamine B (SRB) assay at the end of the exposure period (47, 48).
(§3) Chemotype moiety compounds of CC-I were also tested on the Temodar-resistant CCF-STTG1 and Temodar®-sensitive U87-MG cell lines. The glioma cell culture and treatment is as described above.
(§4) The human glioma CCF-STTG1 cell lines were plated at a density of 5,000 cells per well in 96 well plates under standard DMEM cell culture conditions and then exposed to different concentrations of CC-I, merbarone, or ICRF-193 for 5 days. Merbarone and ICRF-193 are both topoisomerase II inhibitors (55, 56).

[9] = test system: U251; assay: Cytotoxicity (MTS or SRB assay), U251; format: cell-based; details: U-251; human astrocytoma or glioblastoma cell line
Protocol: as §5

[10] = test system: SVGp12; assay: Cytotoxicity, SVGp12; format: cell-based; details: SVGp12; SV40 transformed human astrocyte cell line
Protocol: as §5

[11] = test system: MCF10A; assay: Cytotoxicity, MCF10A; format: cell-based, human; details: Homo sapiens, MCF-10A; immortalized, non-transformed mammary epithelial cell line
[12] = test system: SW1088; assay: Cytotoxicity (MTS or SRB assay), SW1088; format: cell-based, human
Protocol: Human glioma cells were ordered from American Type Culture Collection (ATCC, Manassas, Va.), and maintained in DMEM with 4×10^−3M L-glutamine, 100 U/ml penicillin, 100 μg/ml streptomycin, and 10% fetal bovine serum (FBS). All experiments were performed at 37° C. in 5% CO2 atmosphere under cell culture conditions. […] Then cells received different dosages of γ-radiation from a ^60Co source GammaCell 220 (Nordion International Inc, Ontario, Canada) or chemotherapeutic agents for another 2-6 days. Cell cytotoxicity assay was determined by MTS [3-(4,5-dimethylthiazol-2-yl)-5-(3-carboxymethoxyphenyl)-2-(4-sulfophenyl)-2H-tetrazolium, inner salt] Cell Proliferation Assay (Promega, Madison, Wis.) or sulforhodamine B (SRB) assay at the end of the exposure period (47, 48).

[13] = test system: CCF-STTG1; assay: cells; details: for IC50: Homo sapiens, CCF-STTG1, read-out: IC50 (μM) CCF-STTG1
Protocol: as §2
Temodar®-resistant cell lines were used to screen for compounds having the ability to decelerate the growth of, or kill, Temodar®-resistant cells. The efficacy of over 15,000 different compounds in the Drug Discovery Core at Pennsylvania State Hershey Medical Center was tested on Temodar®-resistant human neuroblastoma SH-SY5Y and human glioma CCF-STTG1 cell lines with a colorimetric cytotoxicity assay, the sulforhodamine B (SRB) assay (53).
as §3, §4

[14] = test system: WT/SH-SY5Y; assay: Cytotoxicity, WT/SH-SY5Y neuroblastoma; format: cell-based; details: wild type HFE transfected human neuroblastoma SH-SY5Y
Protocol: as §5

[15] = test system: C282Y/SH-SY5Y; assay: cells; format: cell-based; details: C282Y HFE transfected human neuroblastoma SH-SY5Y
Protocol: as §5

[16] = U87-MG, 5 days (120 hrs) incubation, read-out: Activity Score (Mean pXC50) (converted)
[17] = read-out: Brain - Glioblastoma U87 pXC50 (converted)

## CCN1C(=O)C(=C/C=C/c2ccccc2)C(=O)N(CC)C1=S [DDD00124821]
[1]
  IC50: 10 to 31.6 µM
[2]; [16]
  IC50: 31.6 to 100 µM
[2]; [17]
  IC50: 31.6 to 100 µM
[3]
  IC50: 10 to 31.6 µM
[4]
  IC50: > 100 µM

## CCN1C(=O)C(=C/C=C/c2ccco2)C(=O)N(CC)C1=O [DDD00124802]
[1]
  IC50: 31.6 to 100 µM
[2]; [16]
  IC50: 10 to 31.6 µM
[2]; [17]
  IC50: 31.6 to 100 µM
[3]
  IC50: 1 to 10 µM
[4]
  IC50: 10 to 31.6 µM

## Cc1c2oc3c(C)ccc(C(=O)N[C@@H]4C(=O)N[C@H](C(C)C)C(=O)N5CCC[C@H]5C(=O)N(C)CC(=O)N(C)[C@@H](C(C)C)C(=O)O[C@@H]4C)c3nc-2c(C(=O)N[C@@H]2C(=O)N[C@H](C(C)C)C(=O)N3CCC[C@H]3C(=O)N(C)CC(=O)N(C)[C@@H](C(C)C)C(=O)O[C@@H]2C)c(N)c1=O [actinomycin D, reference compound] (I: T[dV]P[Sar][NMeV] / II: T[dV]P[Sar][NMeV]; ester I:1-I:C, II:1-II:C; linker I:N-II:N via Actinocin(9to1))
[5]
  percentage of apoptotic cells: 47.8±0.04%

## O=C1NC(=S)NC(=O)C1=C/C=C/c1ccco1 [DDD00124818]
[1]
  IC50: 10 to 31.6 µM
[2]; [16]
  IC50: 10 to 31.6 µM
[2]; [17]
  IC50: 10 to 31.6 µM
[3]
  IC50: 1 to 10 µM
[4]
  IC50: > 100 µM

## O=C1NC(=O)C(=C/C=C/c2ccco2)C(=O)N1 [DDD00124807]
[1]
  IC50: 10 to 31.6 µM
[2]; [16]
  IC50: 10 to 31.6 µM
[2]; [17]
  IC50: 10 to 31.6 µM
[3]
  IC50: 1 to 10 µM
[4]
  IC50: 10 to 31.6 µM

## O=C1NC(=S)NC(=O)C1=C/C=C/c1ccccc1 [Formula V]
[6]
  IC50: 3.2 µM
[7]
  IC50: 4.3 µM
[8]
  IC50: 1.8 µM
[9]
  IC50: 2.5 µM
[10]
  IC50: 1.6 µM
[11]
  IC50: 1.7 µM
[12]; Homo sapiens, SW1088, read-out: IC50 (μM) SW1088
  IC50: 1.2 µM
[12]; SW-1088 astrocytoma cells
  LD50: 0.3 μg/ml and 1.2 μM
[13]
  IC50: 3 µM
[13]; Temodar-resistant CCF-STTG1
  cytotoxicity to CCF-STTG1 cell lines (in words): greatest toxicity

## CCN1C(=O)C(=C/C=C/c2ccccc2)C(=O)N(CC)C1=O [DDD00125643]
[1]
  IC50: 1 to 10 µM
[2]; [16]
  IC50: 1 to 10 µM
[2]; [17]
  IC50: 1 to 10 µM
[4]
  IC50: 10 to 31.6 µM

## CCN1C(=O)NC(=O)/C(=C\C=C\c2ccco2)C1=O [DDD00124808]
[1]
  IC50: 10 to 31.6 µM
[2]; [16]
  IC50: 10 to 31.6 µM
[2]; [17]
  IC50: 10 to 31.6 µM
[3]
  IC50: 1 to 10 µM
[4]
  IC50: 10 to 31.6 µM

## CCN1C(=O)NC(=O)/C(=C\C=C\c2ccccc2)C1=O [DDD00124809]
[1]
  IC50: 1 to 10 µM
[2]; [16]
  IC50: 1 to 10 µM
[2]; [17]
  IC50: 1 to 10 µM
[4]
  IC50: 1 to 10 µM

## Cn1nnc2c(C(N)=O)ncn2c1=O [Temodar ®, Temozolomide, reference compound]
[1]
  IC50: > 100 µM
[14]
  IC50: 103 µM
[15]
  IC50: 92 µM
[8]
  IC50: 13.6 µM
[2]; [17]
  IC50: 10 to 31.6 µM
[9]
  IC50: 47.2 µM
[3]
  IC50: > 100 µM
[4]
  IC50: > 100 µM
[12]; SW1088, human astrocytoma or glioblastoma cell line, read-out: IC50 (μM) SW1088
  IC50: 29.5 µM
[13]
  IC50: 306 µM
